Consider 70 compounds from PubChem BioAssay AID179 (DTP/NCI, 2004).

SMILES strings stand for the structures. pEC50, pIC50: −log10 of the molar value. “And” between values parts separate entries of the source, which are not always exact repeats. Equal entries are not always repeated. The source made the active and inactive calls.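 The calls were made as follows: active = compounds giving half or more protection of infected cells from virus-caused growth loss, again on retest; inactive = the rest.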

In this assay the test system is CEM cells HIV-1 protection, formazan growth assay. The assay is described as follows: NCI AIDS Antiviral Assay. The following applies: for pIC50: measured here: growth of uninfected CEM cells. The method, boiled down: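 Protection of CEM cells against HIV-1 measured as cell growth via soluble formazan read-out, with five concentrations tested on both infected and uninfected cells; failure to protect may reflect toxicity.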

Take `O=C1Cc2cc3ccccc3nc2-c2ccccc2N1`: the pEC50 is below 3.70 and the pIC50 was below 3.70.

Turning to `CCOC(=O)/C(=C\c1ccc(OCc2ccccc2)c(OC)c1)C(=O)c1ccccc1`, the pEC50 is below 4.90 and the negative-log IC50 (pIC50) was below 4.90.

In the case of `CCn1c(CSc2nc(-c3ccccc3)c(-c3ccccc3)[nH]2)n[nH]c1=S`, the pEC50 was below 4.04 and the pIC50 was 4.28.

On to `CC12CP(=O)(c3ccccc3)CC1C2(Cl)Cl` (stereo unspecified), for which the result was inactive.

Turning to `Cc1ccc(S(=O)(=O)N2CCc3cc(O)c([N+](=O)[O-])cc32)cc1`, the pEC50 is below 3.70 and the pIC50 was below 3.70.

Consider `CCOC(=O)C(/C=N\C(=S)Nc1c(CC)cccc1C(C)(C)C)=C(/O)c1ccccc1`, for which the pEC50 was below 3.70 and the pIC50 was below 3.70.

Take `Cc1nc2ccccc2c(-n2cccn2)c1CCn1cccn1`: the pEC50 was below 3.70 and the pIC50 was 4.03.

As to `Nc1cnc(N2CCN(c3ncc(N)cc3N)CC2)c(N)c1`, the pEC50 is below 4.02 and the pIC50 was 4.11.

For the compound `CCOC(=O)C1C(c2ccc(Br)cc2)N(Cc2ccccc2)C(c2ccc(Br)cc2)C(C(=O)OC)S1(=O)=O` (stereo unspecified), the pEC50 is below 5.66 and the pIC50 is below 5.66.

Turning to `COc1cc(-c2[nH]ncc2CCCC(=O)Nc2ccccc2[N+](=O)[O-])ccc1O`, the outcome was inactive.

`O=C1CS(=O)(=O)C(c2cccc(F)c2)N1N1C(=O)CS(=O)(=O)C1c1cccc(F)c1` (stereo unspecified): the pEC50 was below 3.70 and the pIC50 was below 3.70.

For the compound `Nc1ccc(S(=O)(=O)NC(=O)c2ccccc2)cc1`, the pEC50 is below 3.70 and the pIC50 was below 3.70.

Turning to `Cn1c(=O)cc(C=Nc2ccc(N=Nc3ccccc3)cc2)c2ccccc21`, the pEC50 is below 3.70 and the pIC50 was 5.82.

`CC(C)(Oc1ccc(C(=O)c2ccc(Cl)cc2)cc1Cl)C(=O)N1CCN(c2ccccc2)CC1`: the pEC50 was below 4.70 and the pIC50 was below 4.70.

Turning to `O=C(c1ccccc1)C(c1ccccc1)C1(O)C(=O)Nc2c(Cl)ccc(Cl)c21` (stereo unspecified), the pEC50 is below 4.76 and the pIC50 is below 4.76.

Regarding `O=C1CC(C(OCc2ccccc2)C(OCc2ccccc2)C(COCc2ccccc2)OCc2ccccc2)CC(=O)N1` (stereo unspecified), the pEC50 is below 3.70 and the pIC50 is below 3.70.

With `CC(C)C(NCc1c(O)ccc2c(-c3ccccc3)cc(=O)oc12)C(=O)O` (stereo unspecified), the pEC50 was below 3.70 and the pIC50 is below 3.70.

With `O=[N+]([O-])c1cc2c(c([N+](=O)[O-])c1)NCc1ccccc1O2`, the pEC50 was below 3.70 and the pIC50 was below 3.70.

Regarding `[N-]=[N+]=C(C(=O)CN1CCCC1=O)S(=O)(=O)c1ccccc1`, the pEC50 is below 3.09 and the pIC50 was 3.36.

As to `COc1ccc(NC(=O)/C(Cc2nc3ccccc3[nH]c2=O)=N\O)c(OC)c1`, the result was inactive.

Turning to `CC(C)(C)OC(=O)NC(Cc1ccccc1)NC(=O)NC(=O)OCc1ccccc1` (stereo unspecified), the pEC50 is below 3.70 and the pIC50 is 3.95.

Consider `O=c1[nH]nc(-c2ccccc2)n1/N=C/c1ccc([N+](=O)[O-])cc1`, for which the pEC50 is below 3.70 and the pIC50 was below 3.70.

For the compound `[N-]=[N+]=NC1=C(N=[N+]=[N-])c2cccc3cccc(c23)C1=O`, the outcome was inactive.

For `C[C@@]1(C(=O)O)CCC[C@@]2(C)C1[C@H](OC(=O)c1ccccc1)CC1CC3CC12CC[C@@]3(C)O` (stereo partly specified), the pEC50 was below 3.55 and the pIC50 was 4.23.

As for `CC(=O)OCC1OC(n2c(-c3ccc(C)cc3)cc(-c3ccco3)c(C#N)c2=S)C(OC(C)=O)C(OC(C)=O)C1OC(C)=O` (stereo unspecified), the pEC50 was below 3.70 and the pIC50 was 3.81.

`COc1cc2c(c(OC)c1OC)C(=O)C1C2N1C(=O)CCCCl` (stereo unspecified): the pEC50 was below 3.70 and the negative-log IC50 (pIC50) is below 3.70.

`c1ccc(-c2cnnc3c4ccccc4nn23)cc1`: the pEC50 is below 3.70 and the pIC50 was below 3.70.

For `O=C1/C(=C/c2ccccc2[N+](=O)[O-])CCCc2ccccc21`, the pEC50 is below 3.70 and the pIC50 was 4.46.

As to `Cc1cc(C)c(C2=NO[C@H]3c4ccccc4OC[C@@H]23)c(C)c1`, the pEC50 is below 4.61 and the pIC50 is below 4.61.

With `COc1cccc([B-]23OCC[N+]2(CNC(=O)C2=C(O)C4(O)C(=O)C5=C(O)c6c(O)cccc6C(C)(O)C5CC4C(N(C)C)C2=O)CCO3)c1` (stereo unspecified), the pEC50 was below 4.42 and the pIC50 is below 4.42.

Regarding `Cc1c(C)c([N+](=O)[O-])c2c(c1N)C(=O)c1ccccc1C2=O`, the outcome was inactive.

Regarding `COC(=O)Nc1cn2ccc(C(Cl)=C(Cl)Cl)cc2n1`, the pEC50 was below 4.51 and the pIC50 is 7.48.

In the case of `CCOC(=O)c1c2ccc(/C=C/c3ccccn3)ccc-2c(C(=O)OCC)c1N`, the pEC50 is below 5.17 and the pIC50 was below 5.17.

Take `COc1ccc2c(c1)CCc1c-2[nH]c2ccc(OC)cc12`: the pEC50 was below 3.70 and the pIC50 was below 3.70.

As to `COc1ccc2cc3[nH]c(=O)cc(O)c3cc2c1OC`, the outcome was inactive.

Turning to `C[Si](C)(C)/C=C\CCNC=O`, the pEC50 is below 2.84 and the pIC50 was below 2.84.

Take `Cc1c(C(=O)C/C(=N/NC(=O)c2ccccc2)C(=O)Nc2ccc(Cl)cc2)[n+](=O)c2ccccc2n1[O-]`: the pEC50 was below 4.46 and the negative logarithm of the IC50 (pIC50) is 4.69.

With `CNc1ccc(C)cc1S(=O)(=O)c1ccc([N+](=O)[O-])cc1`, the pEC50 was below 3.70 and the pIC50 is below 3.70.

`NC(=O)C(=O)Cc1nc2ccccc2s1`: the pEC50 is below 4.04 and the pIC50 is below 4.04.

Turning to `COc1cc(-c2cc(-c3ccccc3)c3cc(Cl)ccc3n2)cc(OC)c1OC`, the pEC50 is below 3.70 and the pIC50 was below 3.70.

In the case of `CCOC(=O)CC(C)C1(C(=O)OCC)CCCCC1=O` (stereo unspecified), the pEC50 was below 3.48 and the pIC50 is below 3.48.

For `COc1ccc2[nH]c3c(c2c1)CC(=O)N1CCC[C@H](C1)CC31OCCCO1`, the pEC50 is below 3.70 and the pIC50 was 3.95.

In the case of `COC1=C(OC)C(=O)c2cc(C)c(=O)c(C)cc2C1=O`, the pEC50 was below 4.88 and the pIC50 is 5.40.

Consider `O=c1c2cc(-c3ccccc3)sc2nc2n1N=C(c1ccc(Cl)cc1)CS2`, for which the pEC50 was below 3.70 and the pIC50 is below 3.70.

Regarding `COc1cc(N=Nc2ccc3c(c2)Cc2ccccc2-3)c(OC)cc1N`, the pEC50 was below 3.70 and the pIC50 is 4.33.

For `CCOC(=O)C(CCC1=NC(C)(C)CC(C)O1)C(=O)OCC` (stereo unspecified), the pEC50 is below 3.70 and the pIC50 was below 3.70.

For `COC1(c2cccs2)OC(=O)c2c([N+](=O)[O-])cccc21` (stereo unspecified), the result was inactive.

Consider `COc1ccc(CC(CO)NC(=O)OCc2ccccc2)cc1Oc1ccc(CC(CO)NC(=O)OCc2ccccc2)cc1` (stereo unspecified), for which the pEC50 was below 3.70 and the pIC50 was 5.00.

Turning to `O=C(CCC[n+]1ccccc1)CC(O)(C(F)(F)F)C(F)(F)F`, the pEC50 was below 3.70 and the pIC50 is below 3.70.

Turning to `N#C/C(C(=S)Nc1ccccc1)=C(/N)N1CCCC1`, the pEC50 was below 3.70 and the pIC50 was 3.98.

Take `CC(=O)OCC1(CNc2nc(N)ncc2C#N)CC(CCc2ccccc2)C1` (stereo unspecified): the pEC50 is below 3.70 and the pIC50 is 4.76.

For `OC1C#CCSCC#C/C=C\1` (stereo unspecified), the pEC50 was below 3.70 and the negative-log IC50 (pIC50) was 4.98.

Consider `COc1ccc(-n2c(Cn3nnc(-c4cccnc4)n3)nn(C3OC(COC(=O)c4ccccc4)C(OC(=O)c4ccccc4)C3OC(=O)c3ccccc3)c2=S)cc1` (stereo unspecified), for which the pEC50 is below 4.00 and the pIC50 was below 4.00.

On to `CN1C(=O)C(/C=N/NC(=O)c2cccnc2)C(N)N(C)C1=O` (stereo unspecified), for which the pEC50 is below 3.70 and the pIC50 was below 3.70.

Take `NNC1=N/C(=C\c2ccccc2O)C(=O)N1`: the pEC50 is below 3.70 and the pIC50 was 4.45.

As to `CCOC(=O)/C(O)=C1\C(=O)N(C)C(=O)C1c1ccc(OC)c(OC)c1` (stereo unspecified), the outcome was inactive.

`CC(C)[Si](OC1=CCC[C@H]2NC(=O)[C@@H](Cc3ccccc3)[C@@]12C)(C(C)C)C(C)C`: the pEC50 is below 3.70 and the negative logarithm of the IC50 (pIC50) was 4.92.

Consider `COc1ccc(C(OCC2OC(N3CN4C(=NC3=O)N(C(=O)C(C)C)C(OC(=O)C(C)C)C4OC(=O)C(C)C)CC2OP(OC)N(C(C)C)C(C)C)(c2ccccc2)c2ccc(OC)cc2)cc1` (stereo unspecified), for which the pEC50 is below 4.00 and the pIC50 is below 4.00.

With `Nc1ccc(S(=O)(=O)NCCSSCCNS(=O)(=O)c2ccc(N)cc2)cc1`, the pEC50 is below 3.70 and the pIC50 was 4.34.

Turning to `CC1(Br)Cc2ccccc2C1=O` (stereo unspecified), the outcome was inactive.

On to `CCN(CC)CCC(=O)N1C/C(=C/c2ccccc2)C(=O)/C(=C\c2ccccc2)C1`, for which the pEC50 was below 3.70 and the pIC50 is 6.39.

In the case of `O=C1NCCCCC1CCCC#Cc1ccccc1` (stereo unspecified), the pEC50 is below 4.13 and the pIC50 is 4.34.

Regarding `CC(=O)Oc1c2c(c(OC(C)=O)c3c1n(C(C)=O)c1ccccc1n3C(C)=O)n(C(C)=O)c1ccccc1n2C(C)=O`, the pEC50 was below 4.48 and the pIC50 was 5.23.

Consider `O=[N+]([O-])c1ccccc1S(=O)(=O)c1ccccc1`, for which the pEC50 was 4.74 and the pIC50 is 3.77.

As for `COC1=CC(=O)[C@@]2(C)C(C)[C@H](c3ccccc3)[C@H]2C1=O` (stereo partly specified), the pEC50 was below 3.60 and the pIC50 was below 3.60.

For the compound `O=[N+]([O-])c1ccc(N=Nc2ccc(O)c3c(O)cc(S(=O)(=O)O)cc23)cc1S(=O)(=O)O`, the pEC50 is below 4.00 and the pIC50 is below 4.00.

Consider `O=C(Nc1cccnc1)c1ccccc1[Se][Se]c1ccccc1C(=O)Nc1cccnc1`, for which the pEC50 was 5.49 and the pIC50 is 5.16.

With `C=CCN1C(N)=C(C#N)C(C#N)(C#N)C1CCC` (stereo unspecified), the pEC50 was below 3.70 and the pIC50 is 3.82.

In the case of `[N-]=[N+]=Nc1c([N+](=O)[O-])c(=O)n(-c2ccccc2)c2ccccc12`, the pEC50 was below 3.70 and the pIC50 was 4.87.

Regarding `CC(=O)OCC1OC(n2c3c(cc(C#N)c2=S)CCCC3)C(OC(C)=O)C(OC(C)=O)C1OC(C)=O` (stereo unspecified), the pEC50 is below 3.70; the pIC50 is 4.06 and < 3.70.
